Experiments:
[1] = test system: learning memory of LACA mice; test: Water maze experiment, effect on learning memory of mice (d value analysis of response time); type: in vivo; conditions: 400 mg/kg orally vs control group; second time test; n = 27
Excerpt: The medicinal preparation of the present invention was used in a water maze experiment to study its effect on the learning memory of LACA mice. The Piracetam Tablets was used as a positive comparative drug for testing 6 days per week. The test lasted for 27 days. According to the data listed in the Table 2, it is readily apparent that the preparation of the present invention has a meaningful effect on the learning memory of the mice, as exemplified by the difference in the response time between the control group and the doped groups, which were respectively doped with 50 mg/kg of the preparation containing phenylethanoid glycosides, 200 mg/kg of the preparation containing phenylethanoid glycosides, and 400 mg/kg of the preparation containing phenylethanoid glycosides.

[2] = test system: memory loss of LACA mice induced by ethanol; test: Water maze experiment, prevention of memory loss induced by ethanol; type: in vivo; conditions: 400 mg/kg, one-week orally
Method: The effect of the preparation of the present invention on the prevention of memory loss by the LACA mice was studied by the water maze experiment. The mice were orally administered with the drugs. One hour after such an oral administration, they were provided with 30% ethanol 0.1 ml/10 g BW. In 30 minutes, the water maze experiment was started.

[3] = test system: blood platelets aggregation of rats; test: ADP-caused aggregation of blood platelets of rats after oral administration; type: in vivo, male SD rats; conditions: 100 mg/kg orally for 7 days
Method: A study was done on the effect of the preparation of the present invention on aggregation of blood platelets of the rats.
The aggregation of blood platelets was caused by using adenosine disodium diphosphate (ADP). 1 mg/ml ADP solution was kept refrigerated before use. When the ADP solution was about to be used, it was diluted three times with the phosphoric acid buffer solution.
The male SD rats were randomly divided into five groups in accordance with the body weight. These five groups were the distilled water comparative group, the aspirin group, the 200 mg/kg preparation group, the 100 mg/kg preparation group, and the 50 mg/kg preparation group. The drugs were orally administered, with the administration volume being […]. The rats of the distilled water comparative group were given distilled water in same quantity. The administration continued for 7 days. The rats were not fed for 12 hours prior to the final administration. One hour after the final administration the blood was drawn out from the main artery. The blood so draw out was prevented from aggregation by 3.8% sodium citrate (1:9). […] The aggregation degree was determined by using a SPA-4 multifunctional blood platelet aggregation meter. The inhibition rate of the blood platelet aggregation is calculated by the following formula. […]

[4] = test system: thrombosis of the vein bypass of rats; test: Thrombosis of the vein bypass of rats; type: in vivo, male SD rats; conditions: 100 mg/kg orally
Excerpt: A study was done on the effect of the preparation of the present invention on thrombosis of the vein bypass of the rats. The male SD rats were studied as compared with the aspirin. Thrombosis inhibition rate (%)=(distilled water comparative group thrombosis weight−drug group thrombosis weight)/distilled water comparative group thrombosis weight×100%.

Row | Structure (SMILES) | d value ≧0.5, % [1] [%] | d value ≧0.5, day [1] [days] | d value ≧0.5 sum, % [1] [%] | d value ≧0.5 sum, day (period when the response time shows meaningful difference) [1] [days] | d value ≧0.8, % [1] [%] | d value ≧0.8, day [1] [days] | Arrival at destination after being trained, Error number [2] | Arrival at destination after being trained, Time [2] [s] | Arrival at destination after being trained, error number of animal [2] | Arrival at destination after being given alcohol, Error number ([2]; 30% ethanol 0.1 ml/10 g BW) | Arrival at destination after being given alcohol, Error rate ([2]; 30% ethanol 0.1 ml/10 g BW) | Arrival at destination after being given alcohol, Group error rate ([2]; 30% ethanol 0.1 ml/10 g BW) | Arrival at destination after being given alcohol, error number of animal ([2]; 30% ethanol 0.1 ml/10 g BW) | aggregation inhibition ([3]; vs distilled water group) [%] | maximum aggregation ([3]; ±SD) [%] | thrombosis inhibition rate ([4]; vs distilled water comparative group) [%] | thrombosis weight ([4]; x ± SD) [mg]
1 | NC(=O)CN1CCCC1=O [Piracetam] | 18.5 | 5 | 25.5 | 7 | 7.4 | 2 | 0/0 | 8.00 ± 0.46 | 0/0 | 54 | 9.00 times/number of animal | 5.40 times/number of animal | 6 | – | – | – | –
2 | CC(=O)Oc1ccccc1C(=O)O [aspirin] | – | – | – | – | – | – | – | – | – | – | – | – | – | 40.30 | 32.73 ± 11.14 | 34.97 | 29.2 ± 4.00

Source: US7087252B2, “Medicinal preparation containing phenylethanoid glycosides extracted from herbaceous plant, Cistanche tubulosa (Schrenk.) Wight, process of making the same, and uses of the same” (Sinphar Pharmaceutical Co., Ltd., priority 2003, dated 2006)
